Laboratory results published in article PMC5777153 (Cell chemical biology, 2017).

Test system: human kinome
Assay: KinomeScan competitive binding assay across the kinome
Conditions: 10 μM

## COc1cc2c(Oc3ccc(NC(=O)C4(C(=O)Nc5ccc(F)cc5)CC4)cc3F)ccnc2cc1OCCCN1CCOCC1 [foretinib]
  number of kinases bound (percent of control value of 35 or less): 133 kinases
